The source of these data is patent publication US11570982B2, “Systems and methods for natural cryoprotectants for preservation of cells” (Membrane Protective Technologies, Inc., priority 2016, dated 2023).

A short description of this test: Antioxidant activity (Trolox equivalent) of materials substituted for glycerol.

Molecules are shown by their SMILES.

As for `OCC(O)CO` [Glycerol, glycerol], the “Antioxidant (Trolox equivalent μM/g)” value amounted to 0 µM/g.
